Data set [1] deals with NL4-3, a T-cell adapted HIV-1 strain, X4 wild type virus. Nature of the data set: microbe, parasite or virus in culture. The data set is classed as cell-based. From the text: (§1) NL4-3 is a T-cell adapted HIV-1 strain, a wild type virus; PI—R is HIV-1M46I/L63P/V82P/I84V, an HIV-1 strain resistant to multiple protease inhibitors; and FHR-2 is an HIV-1 strain resistant to DSB (2).

Data set [2] relates to FHR-2, an HIV-1 strain resistant to DSB (2). Nature of the data set: microbe, parasite or virus in culture. The data set is classed as cell-based.
Source text: as §1

A further data set has as its system MT-4 cells. Nature of the data set: Cell growth inhibition (cytotoxicity) of uninfected cells. To be noted: table title: MT-4 cells; uninfected H9 cell growth; read-out: IC50 (concentration that inhibits uninfected cell growth by 50%). It is filed as cell-based.
A further data set relates to HIV fusion. Description: Anti-HIV fusion activity (preliminary, data not shown). The data set is classed as cell-based. To be noted: preliminary results.
Source text: as §1

Data set [3] concerns PI-R, HIV-1M46I/L63P/V82P/I84V, resistant to multiple protease inhibitors. Description: microbe, parasite or virus in culture. It is filed as cell-based.
Source text: as §1

A short description of data set [4]: Cell growth inhibition (cytotoxicity) of uninfected cells. The data set is classed as cell-based. The note with it: human, uninfected MT-4 cells; table title: MT-4 cells; uninfected H9 cell growth; read-out: IC50 (concentration that inhibits uninfected cell growth by 50%).
A further data set relates to HIV in H9 lymphocyte. The note with it: cited from earlier work.
Where [5] appears, read: MT-4 cells, NL4-3 wild type HIV-1 strain, read-out: EC50, NL4-3 (concentration that inhibits viral replication by 50%).
Setting [6] is: MT-4 cells, DSB-resistant HIV-1 strain, — = no suppression at 5 μM, read-out: EC50, FHR-2 (concentration that inhibits viral replication by 50%).
[7] abbreviates: MT-4 cells, multi-protease-inhibitor resistant HIV-1 strain, read-out: EC50, PI-R (concentration that inhibits viral replication by 50%).

Like-named read-outs stand apart in the source and are kept apart here. Some results are limits rather than exact numbers.

Consider `Cc1cn([C@H]2C[C@H](N=[N+]=[N-])[C@@H](CO)O2)c(=O)[nH]c1=O` [AZT, reference compound], for which the results for the EC50 in data set [1] (setting [5]) and in data set [2] (setting [6]) were 13 nM and 190 nM, respectively. The IC50 in the data set with MT-4 cells was above 37500 nM.
On to `CC(C)CC(CO)NC(=O)[C@]12CCC(C)(C)C=C1[C@H]1CC[C@@H]3[C@@]4(C)CC[C@H](OC(=O)CC(C)(C)C(=O)O)C(C)(C)[C@@H]4CC[C@@]3(C)[C@]1(C)CC2` (stereo partly drawn) [Compound 7, N-[3β-(3′,3′-Dimethylsuccinoxy)olean-18-en-28-oyl]-(1-hydroxy-methyl-3-methyl-butyl)-amide], for which, in the data set on HIV fusion, the anti-HIV fusion activity entry is recorded as “exhibit anti-HIV fusion activity”. Moreover, the EC50 in data set [1] (setting [5]) turned out to be 45 nM; in data set [3] (setting [7]), 88 nM; in data set [2] (setting [6]), 2780 nM. In addition, the IC50 in the data set on MT-4 cells was above 14600 nM.
As to `CC(C)C[C@H](NC(=O)[C@]12CCC(C)(C)C=C1[C@H]1CC[C@@H]3[C@@]4(C)CC[C@H](OC(=O)CC(C)(C)C(=O)O)C(C)(C)[C@@H]4CC[C@@]3(C)[C@]1(C)CC2)C(=O)O` [Compound 8, N-[3β-(3′,3′-Dimethylsuccinoxy)olean-18-en-28-oyl]-L-leucine], the anti-HIV fusion activity result in the data set on HIV fusion is on record as “exhibit anti-HIV fusion activity”. The EC50 in data set [1] (setting [5]) turned out to be 5.7 nM; in data set [3] (setting [7]) it was 21 nM; in data set [2] (setting [6]) it was 130 nM. Also, the IC50 in the data set with MT-4 cells was above 14300 nM.
Take `C=C(C)[C@@H]1CC[C@]2(C(=O)O)CC[C@]3(C)[C@H](CC[C@@H]4[C@@]5(C)CC[C@H](OC(=O)CC(C)(C)C(=O)O)C(C)(C)[C@@H]5CC[C@]43C)[C@@H]12` [DSB (2), 3-O-(3′,3′-dimethylsuccinyl)-betulinic acid, reference compound]: the EC50 in data set [1] (Human immunodeficiency virus 1, NL43, MT4, read-out: EC50, NL4-3 (concentration that inhibits viral replication by 50%)) was 96 nM; in data set [3] (Human immunodeficiency virus 1, MT4, read-out: EC50, PI-R (concentration that inhibits viral replication by 50%)) it was 430 nM; in data set [2] (Human immunodeficiency virus 1, MT4, read-out: EC50, FHR-2 (concentration that inhibits viral replication by 50%)), above 5000 nM. Besides, in data set [4], the IC50 is above 5000 nM.
`CC1(C)C=C2[C@H]3CC[C@@H]4[C@@]5(C)CCC(=O)C(C)(C)[C@@H]5CC[C@@]4(C)[C@]3(C)CC[C@@]2(C(=O)O)CC1` [moronic acid (3), moronic acid]: in the data set on HIV in H9 lymphocyte, the “EC50, anti-HIV activity” value was below 0.1 µg/mL.

These data come from patent US7282521B2, “Anti-retroviral moronic acid derivatives” (priority 2004, dated 2007).
